In patent US20260355196A1, “INHIBITORS AND DEGRADERS OF PIP4K PROTEIN” (Larkspur Biosciences, Inc., priority 2023, published 2026):

biological target: T1, PIP4K2C (Homo sapiens, UniProt Q8TBX8); experiment: HiBiT PIP4K2C degradation assay in MOLT-4 cells (endogenous PIP4K2C C-terminally tagged with HiBiT); assay type: cell-based; parameters: untagged in primary human PBMCs and monocyte-derived dendritic cells; conditions: 6 hours of incubation time, rather than 24 hours; MOLT-4, top concentration 10 micromolar; read-out: HiBIT-degradation MOLT4 PIP4k2C DC50 (6 hours, marked *)
T1 sequence (Q8TBX8 1-421): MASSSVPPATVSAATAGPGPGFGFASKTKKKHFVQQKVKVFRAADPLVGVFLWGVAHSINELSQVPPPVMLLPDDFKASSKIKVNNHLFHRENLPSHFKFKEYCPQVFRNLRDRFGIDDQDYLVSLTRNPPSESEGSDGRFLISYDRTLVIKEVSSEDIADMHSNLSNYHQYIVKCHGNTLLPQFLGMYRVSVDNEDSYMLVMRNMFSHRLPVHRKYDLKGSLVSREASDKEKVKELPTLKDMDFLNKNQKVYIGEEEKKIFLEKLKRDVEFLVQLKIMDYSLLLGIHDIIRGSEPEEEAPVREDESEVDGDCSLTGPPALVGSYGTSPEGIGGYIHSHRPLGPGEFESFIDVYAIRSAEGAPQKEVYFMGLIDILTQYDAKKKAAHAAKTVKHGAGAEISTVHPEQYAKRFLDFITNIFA
In short: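 Cells are plated onto compound dilutions (10 points, 3-fold, top 10 micromolar) and incubated 24 or 6 hours at 37 C. Lytic HiBiT detection then quantifies tagged endogenous PIP4K2C in MOLT-4, and a Hill fit yields DC50.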

SMILES | DC50 [nM]
O=C1CCC(Nc2ccc(N3CCN([C@H]4CC[C@H](CC(=O)N5CCC(Nc6ncc(F)c(-c7cccc(-n8ccccc8=O)c7)n6)CC5)CC4)CC3)c(F)c2)C(=O)N1 (stereo partly drawn) [Compound 650, trans-3-((3-fluoro-4-(4-(4-(2-(4-((5-fluoro-4-(3-(2-oxopyridin-1 (2H)-yl)phenyl)pyrimidin-2-yl)amino)piperidin-1-yl)-2-oxoethyl)cyclohexyl)piperazin-1-yl)phenyl)amino)piperidine-2,6-dione] | > 5000
O=C1CCC(Nc2ccc(N3CCN(CC4(F)CCN(C(=O)[C@H]5CC[C@H](Nc6ncc(F)c(-c7cccc(-n8ccccc8=O)c7)n6)CC5)CC4)CC3)c(F)c2)C(=O)N1 (stereo partly drawn) [Compound 528, trans-3-((3-fluoro-4-(4-((4-fluoro-1-(4-((5-fluoro-4-(3-(2-oxopyridin-1(2H)-yl)phenyl)pyrimidin-2-yl)amino)cyclohexane-1-carbonyl)piperidin-4-yl)methyl)piperazin-1-yl)phenyl)amino)piperidine-2,6-dione] | < 500

Results, then the molecule that gave them:

DC50 [nM] | SMILES
< 500 | O=C1CCC(Nc2ccc(N3CCN([C@H]4CC[C@H](NC(=O)[C@H]5CC[C@H](Nc6ncc(F)c(-c7cccc(-c8ccccc8)c7)n6)CC5)CC4)CC3)c(F)c2)C(=O)N1 (stereo partly drawn) [Compound 662, trans-(1r,4R)-4-((4-([1,1′-biphenyl]-3-yl)-5-fluoropyrimidin-2-yl)amino)-N-((1r,4R)-4-(4-(4-((2,6-dioxopiperidin-3-yl)amino)-2-fluorophenyl)piperazin-1-yl)cyclohexyl)cyclohexane-1-carboxamide]
< 500 | O=C1CCC(Nc2ccc(C3CCN(CC4CCN(C(=O)[C@H]5CC[C@H](Nc6ncc(F)c(-c7cccc(N8CCCCC8)c7)n6)CC5)CC4)CC3)c(F)c2)C(=O)N1 (stereo partly drawn) [Compound 477, trans-3-((3-fluoro-4-(1-((1-(trans-4-((5-fluoro-4-(3-(piperidin-1-yl)phenyl)pyrimidin-2-yl)amino)cyclohexane-1-carbonyl)piperidin-4-yl)methyl)piperidin-4-yl)phenyl)amino)piperidine-2,6-dione]

same assay, conditions: 24 hours incubation, MOLT-4, top concentration 10 micromolar; read-out: HiBIT-degradation MOLT4 PIP4k2C 24 hours DC50

SMILES | DC50 [nM]
O=C1CCC(Nc2ccc(C3CCN(CC4CCN(C(=O)[C@H]5CCC[C@@H](Nc6ncc(Cl)c(-c7cccc(-c8ccccc8)c7)n6)C5)CC4)CC3)cc2)C(=O)N1 (relative stereo) [Compound 65, cis-3-((4-(1-((1-(3-((4-([1,1′-biphenyl]-3-yl)-5-chloropyrimidin-2-yl)amino)cyclohexane-1-carbonyl)piperidin-4-yl)methyl)piperidin-4-yl)phenyl)amino)piperidine-2,6-dione] | < 500
O=C1CCC(N2Cc3cc(C4CCN(CC5CCN(C(=O)[C@H]6CCC[C@@H](Nc7ncc(Cl)c(-c8cccc(-c9ccccc9)c8)n7)C6)CC5)CC4)ccc3C2=O)C(=O)N1 (relative stereo) [Compound 63, cis-3-(5-(1-((1-(3-((4-([1,1′-biphenyl]-3-yl)-5-chloropyrimidin-2-yl)amino)cyclohexane-1-carbonyl)piperidin-4-yl)methyl)piperidin-4-yl)-1-oxoisoindolin-2-yl)piperidine-2,6-dione] | < 500

Next, values leading:

DC50 [nM] | SMILES
< 500 | Cn1c(=O)n(C2CCC(=O)NC2=O)c2ccc(C3CCN(C4CCN(CC(=O)N5CCC[C@H](Nc6ncc(Cl)c(-c7cccc(-c8ccccc8)c7)n6)C5)CC4)CC3)cc21 (stereo partly drawn) [Compound 75, 3-(5-(1′-(2-((S)-3-((4-([1,1′-biphenyl]-3-yl)-5-chloropyrimidin-2-yl)amino)piperidin-1-yl)-2-oxoethyl)-[1,4′-bipiperidin]-4-yl)-3-methyl-2-oxo-2,3-dihydro-1H-benzo[d]imidazol-1-yl)piperidine-2,6-dione]
< 500 | O=C1CCC(n2c(=O)oc3cc(C4CCN(CC5CCN(CC(=O)N[C@H]6CC[C@H](Nc7ncc(F)c(-c8cccc(N9CCOC9=O)c8)n7)CC6)CC5)CC4)ccc32)C(=O)N1 (stereo partly drawn) [Compound 363, trans-2-[4-[[4-[3-(2,6-dioxo-3-piperidyl)-2-oxo-1,3-benzoxazol-6-yl]-1-piperidyl]methyl]-1-piperidyl]-N-[4-[[5-fluoro-4-[3-(2-oxooxazolidin-3-yl)phenyl]pyrimidin-2-yl]amino]cyclohexyl]acetamide]
